Results from patent US6180844A, “Composition containing fluorescence-generating substrate” (Aisin Seiki Kabushiki Kaisha, priority 1998, dated 2001).

Test system: human chromosome
Experiment: In-situ hybridization of a human chromosome: fluorescence-generating substrate reacted with probe-bonded peroxidase and hydrogen peroxide, observed by fluorescence microscope
Set-up: key to Intensity of Fluorescence / Binding: +++: Very strong.; ++: Strong.; +: Weak.; ±: Very weak.; -: Not detected
Conditions: for Binding: binding of the substrate to the chromosome, same reaction conditions; for Intensity of Fluorescence: human chromosome sample from peripheral blood lymphocytes, substrate in 0.01% hydrogen peroxide, room temperature 30 minutes, fluorescence microscope; for fluorescent signals observed: summary of Table 1
Excerpt: A human chromosome sample was hybridized with a digoxigenin-labeled, full-length human DNA probe, to which was bonded a peroxidase-labeled anti-digoxigenin antibody. This was reacted with any of fluorescence-generating substrates of the invention (Compounds 1 to 11) or with a comparative substrate of a commercially available, water-soluble fluorescent substrate, 3-(4-hydroxyphenyl)propionic acid (HPPA). […] The full-length human DNA probe hybridizes entirely with the human chromosome. Therefore, if the fluorescence-generating substrates tested herein are reacted in a reaction system comprising peroxidase and hydrogen peroxide, the entire chromosome in the system shall be seen to emit fluorescence in the fluorescence-microscopic observation.
The procedure is as follows:
Human chromosome samples were prepared from cultured human peripheral blood lymphocytes. Full-length human DNA was labeled with digoxigenin through nick translation, collected through ethanol precipitation, and dissolved in formamide to prepare a digoxigenin-labeled, full-length human DNA probe. Each human chromosome sample was immersed in a denaturing solution kept heated at 70° C., for 2 minutes, and then rapidly cooled by putting it into 70% ethanol cooled to 4° C., whereby the double-stranded DNA of the sample was kept dissociated in a single-stranded condition. The probe was kept in a water bath at 75° C. for 10 minutes, and then rapidly cooled in ice water with 5 minutes, whereby the double-stranded DNA of the probe was kept dissociated in a single-stranded condition. This probe was mixed with a hybridization solution, put on the human chromosome sample, and reacted with it overnight at 37° C. (in-situ hybridization).
After having been hybridized, the system was washed with a solution of 50% formamide/2×SSC at 37° C. for 15 minutes, then with 2×SSC at room temperature for 15 minutes, and then with 4×SSC at room temperature for 5 minutes, thereby removing the excess, non-hybridized probe therefrom. Next, a pcroxidase-labeled anti-digoxigenin antibody was diluted with a 1% blocking solution into a 1/100 dilution, and the resulting enzyme-labeled antibody dilution was put on the sample, and maintained at 37° C. for 1 hour. The excess enzyme antibody not bonded to the probe was removed by washing the system with a washing solution containing a surfactant. Any of the fluorescence-generating substrates (Compounds 1 to 11) of the invention and a commercially-available, water-soluble fluorescent substrate, HPPA was dissolved in a reactant solution containing 0.01% hydrogen peroxide […], and the resulting fluorescent substrate solution was put on the sample and reacted with it at room temperature for 30 minutes. After reacting in the reaction system comprising the probe-bonded peroxidase and hydrogen peroxide, the fluorescence-generating substrate formed a new compound which was fixed on the chromosome and emitted fluorescence, which was observed using a fluorescence microscopic.
The full-length human DNA probe hybridizes with the entire chromosome, with the result that the entire chromosome was stained with the fluorescence-generating substrate. Sample were processed with any of the fluorescent substrates (Compounds 1 to 11) as well as the commercially-available, water-soluble fluorescent substrate, […]. […] In addition, the binding of the substrate to the chromosome was checked.

SMILES	Binding	Intensity of Fluorescence	fluorescent signals observed	binding of the enzymatic reaction product to the chromosome (product after the enzymatic reaction)
Cc1cc(O)ccc1NC(=O)c1ccccc1C [Compound 9]	++	++		
Cc1cc(C)c(C(=O)Nc2ccc(O)cc2C)c(C)c1 [Compound 10, 4-hydroxy-2-methylphenyl-2,4,6-trimethylbenzamide]	++	++		
O=C(O)CCCCCNC(=O)CCc1ccc(O)cc1 [Compound 11, 6-{3-(4-hydroxyphenyl)propionamido}hexanoic acid]	+++	+++	high-intensity fluorescent signals were observed	
O=C(O)CCc1ccc(O)cc1 [HPPA, 3-(4-hydroxyphenyl)propionic acid, reference compound]	+	±	few fluorescent signals were detected	soluble in water or could not bind to the chromosome
